Experimental data reported in patent US8523975B2, “Salts of mineral nutrients stabilized with amino acids and/or ammonium salt, products and food supplements that contain them and procedures for obtaining same” (priority 2005, dated 2013).

Tests used:
[1] = reference data (Merck Index XII / manufacturer Bartek Inc.); cited from earlier work
[2] = Comparative data of solubility in water; details: 25° C., solubility expressed as iron

Compound	Solubility in water at 25° C. (non-stabilized salt) [1] [grams per liter]	Fe++ (ferrous) allowed per liter of water [2]
O.O.O.O=C([O-])/C=C/C(=O)[O-].[Ca+2] [Calcium Fumarate 3H2O]	1.22	–
O=C([O-])/C=C/C(=O)[O-].[Fe+2] [Ferrous fumarate]	1.4	0.460 gr Fe++ per liter of water
